Where “and” joins values, the source holds several entries; their conditions need not be identical. Equal values may be shown once.
Experiments:
Format in all cases: in vivo, mouse
C57BL/6 mice, CLP sepsis = test: Lung injury score (H&E), CLP mice; settings: 20 h; for lung injury score (Figure 6J): 10 mg/kg NDI, score 0 to 1, individual values
Method: Sepsis was induced in mice by cecal ligation and puncture (CLP) as described previously ([45], [46]). Mice were anesthetized with isoflurane to a surgical plane and placed in a supine position. CLP was performed through a midline laparotomy. The abdomen was shaved and disinfected. Through a 2 cm midline incision, the cecum was exposed and then ligated with a 4-0 silk suture 1 cm proximal from the distal cecal extremity. […] A small amount of cecal content was extruded through both holes, and the ligated cecum was returned to the peritoneal cavity. The wound was closed in layers. […] A small amount of cecal content was extruded. […] Vehicle groups received an equivalent volume of PBS, while treatment groups received NDI 10 mg/kg in […] PBS via retro-orbital injection after CLP. This dose was chosen primarily on the basis of our laboratory’s prior experience, we have consistently used this dose in mouse CLP models with reproducible efficacy and without observable toxicity ([39], [44]). Sham-operated animals underwent a laparotomy without CLP. After closure, the mice received a subcutaneous injection of 0.5 mL of normal saline to overcome surgery-induced dehydration. […] All mice were subcutaneously injected with a single dose of 0.1 mg/kg buprenorphine after CLP. Lung tissues were fixed in 10% formalin before being embedded in paraffin. Blocks were cut into 5 μm sections and stained with H&E. Slides were evaluated under light microscopy to assess the degree of lung injury. Scoring was done using a system created by the American Thoracic Society ([47]). Scores ranged from 0 to 1 and were based on proteinaceous debris in the airspaces, the degree of septal thickening, and neutrophil infiltration in the alveolar and interstitial spaces. The average score per field was calculated at ×200 original magnification.

TNF-α = test: Serum TNF-α, CLP mice, ELISA; settings: DLL4^+ neutrophil-injected CLP mice, 10 mg/kg, 20 h
Method: Sepsis was induced in mice by cecal ligation and puncture (CLP) as described previously ([45], [46]). Mice were anesthetized with isoflurane to a surgical plane and placed in a supine position. CLP was performed through a midline laparotomy. The abdomen was shaved and disinfected. Through a 2 cm midline incision, the cecum was exposed and then ligated with a 4-0 silk suture 1 cm proximal from the distal cecal extremity. For 20-hour CLP experiments, the cecum was punctured twice with a 22-gauge needle. A small amount of cecal content was extruded through both holes, and the ligated cecum was returned to the peritoneal cavity. The wound was closed in layers. For 10-day sepsis survival studies, the cecum was punctured once with a 22-gauge needle. A small amount of cecal content was extruded. Mice were allocated to the vehicle and adoptive transfer of DLL4^+ neutrophils or DLL4^– neutrophils groups. […]
Blood was collected by heart puncture and centrifuged at 1,500g and 4°C for 10 minutes, and the plasma was separated to assess cytokine levels using enzyme-linked immunosorbent assay (ELISA) kits (BD Biosciences). The plasma TNF-α (catalog 558534) and IL-6 (catalog 555240) levels were measured by ELISA.

c-caspase-3 = test: c/t caspase-3 in lungs of CLP mice, Western blot; settings: 10 mg/kg NDI, 20 h; for lung c/t caspase-3 (Figure 5E): individual mice, 10 mg/kg
Method: Sepsis was induced in mice by cecal ligation and puncture (CLP) as described previously ([45], [46]). Mice were anesthetized with isoflurane to a surgical plane and placed in a supine position. CLP was performed through a midline laparotomy. The abdomen was shaved and disinfected. Through a 2 cm midline incision, the cecum was exposed and then ligated with a 4-0 silk suture 1 cm proximal from the distal cecal extremity. For 20-hour CLP experiments, the cecum was punctured twice with a 22-gauge needle. A small amount of cecal content was extruded through both holes, and the ligated cecum was returned to the peritoneal cavity. The wound was closed in layers. For 10-day sepsis survival studies, the cecum was punctured once with a 22-gauge needle. A small amount of cecal content was extruded. Mice were allocated to the vehicle and adoptive transfer of DLL4^+ neutrophils or DLL4^– neutrophils groups. […] Vehicle groups received an equivalent volume of PBS, while treatment groups received NDI 10 mg/kg in […] PBS via retro-orbital injection after CLP. This dose was chosen primarily on the basis of our laboratory’s prior experience, we have consistently used this dose in mouse CLP models with reproducible efficacy and without observable toxicity ([39], [44]). Sham-operated animals underwent a laparotomy without CLP. After closure, the mice received a subcutaneous injection of 0.5 mL of normal saline to overcome surgery-induced dehydration. For 20-hour experiments, animals were not injected with antibiotics; however, for survival studies, animals were given 0.5 mg per kg body weight imipenem (lot 4D21K05, WG Critical Care LLC) subcutaneously in 0.5 mL saline once at the end of CLP. All mice were subcutaneously injected with a single dose of 0.1 mg/kg buprenorphine after CLP.
PVECs and lung tissue were collected in previous steps. Whole-cell proteins were extracted, and the protein concentration was measured using an ABC protein assay kit (catalog 5000002, Bio-Rad). […] Bands were detected using an Odyssey FC Dual-Mode Imaging system 2800 (LI-COR).

Question: How did the “effect on lung injury” value (C57BL/6 mice, CLP sepsis; DLL4^+ neutrophil-injected CLP mice, 10 mg/kg) turn out when ECAGSPCHNGGTCEDGI [NDI] was run?
Answer: The value was “significantly lower lung injury scores”.

Question: And the “lung injury score (Figure 6J)” value (C57BL/6 mice, CLP sepsis; DLL4^+ neutrophils + CLP)?
Answer: Its value is 0.52 and 0.49 and 0.54 and 0.51 and 0.53.

Question: What about the “lung injury score (Figure 6J)” value (C57BL/6 mice, CLP sepsis; DLL4^– neutrophils + CLP) of the same sequence?
Answer: Its value is 0.58 and 0.44 and 0.52 and 0.48 and 0.54.

Question: What about the “effect on serum TNF-α” value (TNF-α) of the same sequence?
Answer: The value was “significantly reduced the serum levels of hepatic and cell injury markers and proinflammatory cytokines”.

Question: What about the “lung c/t caspase-3 (Figure 5E)” value (c-caspase-3; DLL4^+ neutrophils + CLP) of the same sequence?
Answer: Its value is 0.946 and 0.8954 and 1.049 and 0.8952 and 1.09 and 1.113 and 0.9785 and 0.9235 and 1.192.

Question: And the “effect on lung c-caspase-3” value (c-caspase-3; DLL4^+ neutrophils/sepsis)?
Answer: Its value is “attenuated the expression/activation”.

Question: And the “lung c/t caspase-3 (Figure 5E)” value (c-caspase-3; DLL4^– neutrophils + CLP)?
Answer: The value was 1.224 and 1.151 and 0.8027 and 0.9965 and 0.8798 and 1.281.

Source: article PMC12700550, “DLL4^+ neutrophils promote Notch1-mediated endothelial PANoptosis to exacerbate acute lung injury in sepsis” (The Journal of Clinical Investigation, 2025)
